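Grown in 96-well plates, cells were treated for 48 hours with each compound at five concentrations. Insufficient inhibition: endpoint recorded as highest concentration tested. GI50: concentration for 50% inhibition of growth.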 Activity calls are given as the source filed them. Cut-off read from the data, not from the text of the source: active = GI50 up to about 1.1 µM and inactive = higher.
Columns and labels:
Experiment in all cases: DTP human tumour cell line panel, 48 h
[1] = system: CCRF-CEM
[2] = system: PC-3
[3] = system: SK-MEL-5
[4] = system: EKVX
[5] = system: Malme-3M
[6] = system: CAKI-1
[7] = system: RPMI-8226
[8] = system: HCC 2998
[9] = system: SK-OV-3
[10] = system: NCI-H522
[11] = system: HOP-62
[12] = system: HCT-15
[13] = system: SNB-75
[14] = system: SN12C
[15] = system: SNB-19
[16] = system: Hs-578T
[17] = system: HT-29
[18] = system: RXF 393
[19] = system: U-251
[20] = system: UACC-257

Structure (SMILES) | GI50 [1] | GI50 [2] | GI50 [3] | GI50 [4] | GI50 [5] | GI50 [6] | GI50 [7] | GI50 [8] | GI50 [9] | GI50 [10] | GI50 [11] | GI50 [12] [µM] | GI50 [13] | GI50 [14] | GI50 [15] | GI50 [16] | GI50 [17] | GI50 [18] | GI50 [19] | GI50 [20]
CCN(CC)P(=O)(c1ccc2c(c1)OCCOCCOCCOCCO2)N(CC)CC | > 100 µM (inactive) | > 100 µM (inactive) | > 100 µM (inactive) | > 100 µM (inactive) | > 100 µM (inactive) | > 100 µM (inactive) | > 100 µM (inactive) | > 100 µM (inactive) | > 100 µM (inactive) | > 100 µM (inactive) | > 100 µM (inactive) | > 100 | > 100 µM (inactive) | > 100 µM (inactive) | > 100 µM (inactive) | > 100 µM (inactive) | – | – | – | –
CN1CCN(C(=S)N(C(=O)c2cccs2)C2CCCCC2)CC1 | > 10 µM (inactive) | – | > 100 µM (inactive) | – | > 100 µM (inactive) | – | > 100 µM (inactive) | > 100 µM (inactive) | – | > 100 µM (inactive) | – | > 100 | 89.9 µM (inactive) | > 100 µM (inactive) | > 100 µM (inactive) | > 100 µM (inactive) | > 100 µM (inactive) | > 100 µM (inactive) | > 100 µM (inactive) | > 100 µM (inactive)
C[C@H]1OC(=O)[C@@H]2N=NN(Cc3ccccc3)[C@H]12 | – | > 100 µM (inactive) | > 100 µM (inactive) | – | > 100 µM (inactive) | > 100 µM (inactive) | > 100 µM (inactive) | > 100 µM (inactive) | > 100 µM (inactive) | > 100 µM (inactive) | > 100 µM (inactive) | > 100 | – | > 100 µM (inactive) | > 100 µM (inactive) | – | > 100 µM (inactive) | > 100 µM (inactive) | > 100 µM (inactive) | –
CCOP(=O)(OCC)/C(C#N)=C/c1nccn1C | > 100 µM (inactive) | > 100 µM (inactive) | – | > 100 µM (inactive) | – | – | > 100 µM (inactive) | > 100 µM (inactive) | – | > 100 µM (inactive) | > 100 µM (inactive) | > 100 | > 100 µM (inactive) | > 100 µM (inactive) | > 100 µM (inactive) | > 100 µM (inactive) | > 100 µM (inactive) | – | > 100 µM (inactive) | > 100 µM (inactive)
O=C1c2c(O)cccc2Cc2cc(CO)cc(O)c21 | 3.28 µM (inactive) | 1.08 µM (active) | 1.69 µM (inactive) | 3.03 µM (inactive) | 2.21 µM (inactive) | – | 0.743 µM (active) | 2.66 µM (inactive) | 3.19 µM (inactive) | – | 3.01 µM (inactive) | 3.22 | 1.05 µM (active) | 3.38 µM (inactive) | 2.49 µM (inactive) | – | 3.48 µM (inactive) | – | 1.34 µM (inactive) | 2.14 µM (inactive)
COc1cc(-c2oc3c(OC)c(O)c(OC)c(O)c3c(=O)c2OC)ccc1O | 35.2 µM (inactive) | 48.9 µM (inactive) | 29.8 µM (inactive) | 78.7 µM (inactive) | 34.7 µM (inactive) | 24.8 µM (inactive) | 26.1 µM (inactive) | 45.3 µM (inactive) | 17.9 µM (inactive) | 29.1 µM (inactive) | 23.1 µM (inactive) | 28.8 | – | 59.8 µM (inactive) | > 100 µM (inactive) | 14.9 µM (inactive) | 68.1 µM (inactive) | – | 26.4 µM (inactive) | 60.5 µM (inactive)
